Reference: the NIST ThermoML archive (doi:10.1016/j.tca.2013.05.039)
Numbers after ± are expanded uncertainties.

Tests used:
[1] = Adiabatic calorimetry
[2] = Molar enthalpy of transition or fusion; settings: Adiabatic calorimetry

- Triple point temperature ([1]; Crystal 2): 186.18 ± 0.049 K
- Triple point temperature ([1]; Crystal): 279.86 ± 0.066 K
- Molar enthalpy of transition or fusion ([2]; Crystal 2): 1.61 ± 0.0163 kcal/mol
- Molar enthalpy of transition or fusion ([2]; Crystal): 0.642 ± 0.0129 kcal/mol
Structure (SMILES): C1CCCCC1 [cyclohexane]
